Where two headings read alike, the source gives them in different places.
Experiments:
[1] = system: Carbapenem-resistant Acinetobacter baumannii (CRAB, Acinetobacter baumannii); assay: Test Example 2: antibacterial activity test (MIC); assay type: cell-based; details: ID-CAMHB, read-out: ID-CAMHB, MIC
Method: (§1) 1. The test compounds were dissolved in sterile normal saline, vortexed for uniformly mixing, and diluted in a 2-fold dilution with the sterile normal saline (11 concentration points in total). The test concentration range was 32-0.031 μg/mL, and two duplicate wells were set for each concentration. Additional wells without drug dosing were set as growth controls. 2. 4 μL of the diluent was added to 196 μL of the bacterial suspension in a 96-well plate (the bacterial count in the bacterial suspension was 2-8×10^5 colony forming units/mL). 3.
(§2) The minimum inhibitory concentration (MIC) assay was performed with reference to the Clinical and Laboratory Standards Institute (CLSI) guidelines.

[2] = system: Carbapenem-resistant Enterobacteriaceae (CRE, Klebsiella pneumoniae); assay: Test Example 2: antibacterial activity test (MIC); assay type: cell-based; details: ID-CAMHB, read-out: ID-CAMHB, MIC
Method: as §1, §2

[3] = system: Carbapenem-resistant Pseudomonas aeruginosa (CRPA, Pseudomonas aeruginosa); assay: Test Example 2: antibacterial activity test (MIC); assay type: cell-based; details: ID-CAMHB, read-out: ID-CAMHB, MIC
Method: as §1, §2

[4] = system: Control Strain Pseudomonas aeruginosa ATCC 27853; assay: Test Example 2: antibacterial activity test (MIC); assay type: cell-based; details: ATCC27853, ID-CAMHB, ATCC 27853, read-out: ID-CAMHB, MIC
Method: as §1, §2

[5] = system: Control strain Escherichia coli ATCC 25922; assay: Test Example 2: antibacterial activity test (MIC); assay type: cell-based; details: ATCC25922, ID-CAMHB, ATCC 25922, read-out: ID-CAMHB, MIC
Method: as §1, §2

[6] = Test Example 3: pharmacokinetic study in cynomolgus monkeys; assay type: in vivo; details: cynomolgus monkey, plasma, 10 mg/kg single intravenous infusion, individual animals
Method: An appropriate amount of a test compound was weighed precisely and added to a container, and 0.9% sodium chloride injection and 0.2 M NaOH solution were added thereto in an ice bath until the test compound was completely dissolved, so that a sample solution at a concentration of 2 mg/mL was obtained followed by storage at 2-8° C. for later use.
Species and strain: cynomolgus monkey Animal grade: general grade Animal source: Guangxi Xiongsen Primate Experimental Animal Breeding Development Co., Ltd. Number of the using of laboratory animal: SYXK (Su) 2019-0012
6 cynomolgus monkeys (half male and half female) were selected and randomly divided into 3 groups with 1 animal/sex in each group. The cynomolgus monkeys were administered with the test sample at a dose of 10 mg/kg by the single intravenous infusion. Blood samples were collected from each group of animals at the following time points: before administration, and 5 min, 15 min, 0.5 h, 1 h, 2 h, 4 h, 6 h, and 8 h after administration. In the test, the concentration of each test compound in the plasma of the cynomolgus monkey was detected by the LC-MS/MS method, and the lower limit of quantification of the analysis methods for the plasma samples were all 1 μg/mL. The plasma concentration data were analyzed by the non-compartmental analysis (NCA) of the analysis software for pharmacokinetic data, WinNonlin, pharmacokinetic parameters were calculated, and pharmacokinetic characteristics of the test compounds in cynomolgus monkeys after administration were investigated, with the results shown in the following table

[7] = both sexes, cynomolgus, iv, 10 mg/kg

With `CC(C)(O/N=C(\C(=O)N[C@@H]1C(=O)N2C(C(=O)O)=C(C[N+]3(CCN(CCCNC(=O)c4ccc(O)c(O)c4Cl)C(=O)c4ccc(O)c(O)c4Cl)CCCC3)CS[C@H]12)c1csc(N)n1)C(=O)O` [Compound 10] the MIC ([1]; FDA-CDC AR-BANK #0036 (strB, OXA-65, OXA-24, strA, sul2)) was 0.125 µg/mL, the MIC ([1]; FDA-CDC AR-BANK #0052 (OXA-58, OXA-100, sul2)) was 0.0625 µg/mL and the MIC ([1]; FDA-CDC AR-BANK #0063 (OXA-23, OXA-65, OXA-24, sul2)) was > 32 µg/mL. For the same compound, the MIC ([1]; FDA-CDC AR-BANK #0070 (OXA-58, OXA-100, sul2)) was 0.125 µg/mL, the MIC ([1]; FDA-CDC AR-BANK #0101 (strB, OXA-65, OXA-24, strA, sul2)) was 0.5 µg/mL and the MIC ([2]; FDA-CDC AR-BANK #0361 (TEM-1; SHV-12; KPC-2)) was 0.25 µg/mL. It also gave an MIC ([2]; FDA-CDC AR-BANK #0363 (TEM-1; SHV-12; KPC-2)) of 0.125 µg/mL, an MIC ([2]; FDA-CDC AR-BANK #0438 (aph(3′)-Ia, dfrA12, KPC-3, OmpK35, oqxA, oqxB, SHV-11)) of 0.5 µg/mL and an MIC ([2]; FDA-CDC AR-BANK #0453 (KPC-3, OmpK35, oqxA, oqxB, SHV-11, TEM-1B)) of 2 µg/mL. The MIC ([3]; FDA-CDC AR-BANK #0439 (aac(6′)-Il, aadA1b, BCR1, IMP-18, OXA-50)) was 0.25 µg/mL, the MIC ([3]; FDA-CDC AR-BANK #0441 (KPC-2)) was 1 µg/mL and the MIC ([3]; FDA-CDC AR-BANK #0444 (aac(6′)-Il, dfrB5, OXA-4, tet(G), VIM-2)) was 16 µg/mL. It also gave an MIC ([3]; FDA-CDC AR-BANK #0457 (aadA6, VIM-2)) of 0.0625 µg/mL, an MIC [4] of 0.0625 µg/mL and an MIC [5] of 0.0625 µg/mL. For the same compound, the AUC(0-inf) [6, 7] was 32900 ng·h/mL, the AUC(0-t) [6, 7] was 29300 ng·h/mL and the clearance [6, 7] was 5.06 mL/min/kg. The half-life [6, 7] was 37.2 min, the Cmax ([6]; both sexes, cynomolgus, iv, 10 mg/kg, read-out: Cmax) was 35500 ng/mL and the MRT ([6]; both sexes, cynomolgus, iv, 10 mg/kg, read-out: MRT) was 38.4 min. The Vd ([6]; both sexes, cynomolgus, iv, 10 mg/kg, read-out: Vd) was 0.27 L/kg, the Tmax ([6]; both sexes) was 4.8 min and the AUC last ([6]; 10 mg/kg) was 23.44 µg·h/mL. For the same compound, the AUCinf ([6]; 10 mg/kg) was 25.64 µg·h/mL, the CL ([6]; 10 mg/kg) was 390.01 mL/h/kg and the Cmax ([6]; 10 mg/kg) was 30640 ng/mL. It also gave an MRT ([6]; 10 mg/kg) of 37.2 min, a Vd ([6]; 10 mg/kg) of 0.31334 L/kg and a t1/2 ([6]; 10 mg/kg) of 33.6 min.

Reference: US20230121689A1, “CEPHALOSPORIN ANTIBACTERIAL COMPOUND AND PHARMACEUTICAL APPLICATION THEREOF” (priority 2020, published 2023)
